Experimental data as given in BindingDB's records for doi:10.1016/0960-894X(96)00221-1 (1996).

Assay: Compound was evaluated for inhibition of tyrosinase enzyme.

| IC50 [µM] | Compound |
| --- | --- |
| 15.3 | CC[C@H](C)[C@H](NC(=O)OCc1cc(=O)c(O)co1)C(=O)O |
| 0.7 | CC[C@H](C)[C@H](NC(=O)OCc1cc(=O)c(O)co1)C(=O)OCc1cc(=O)c(O)co1 |
| 16.7 | CC(C)[C@H](NC(=O)OCc1cc(=O)c(O)co1)C(=O)O [(S)-2-(5-Hydroxy-4-oxo-4H-pyran-2-ylmethoxycarbonylamino)-3-methyl-butyric acid] |
| 3.03 | C[C@H](NC(=O)OCc1cc(=O)c(O)co1)C(=O)OCc1cc(=O)c(O)co1 [(S)-2-(5-Hydroxy-4-oxo-4H-pyran-2-ylmethoxycarbonylamino)-propionic acid 5-hydroxy-4-oxo-4H-pyran-2-ylmethyl ester] |

More lines, now with the values behind:

| Compound | IC50 [µM] |
| --- | --- |
| CC(C)[C@H](NC(=O)OCc1cc(=O)c(O)co1)C(=O)OCc1cc(=O)c(O)co1 [(S)-2-(5-Hydroxy-4-oxo-4H-pyran-2-ylmethoxycarbonylamino)-3-methyl-butyric acid 5-hydroxy-4-oxo-4H-pyran-2-ylmethyl ester] | 2.39 |
| O=C(N[C@@H](Cc1ccccc1)C(=O)OCc1cc(=O)c(O)co1)OCc1cc(=O)c(O)co1 [(S)-2-(5-Hydroxy-4-oxo-4H-pyran-2-ylmethoxycarbonylamino)-3-phenyl-propionic acid 5-hydroxy-4-oxo-4H-pyran-2-ylmethyl ester] | 0.06 |
| O=C(N[C@@H](Cc1ccccc1)C(=O)O)OCc1cc(=O)c(O)co1 [(S)-2-(5-Hydroxy-4-oxo-4H-pyran-2-ylmethoxycarbonylamino)-3-phenyl-propionic acid] | 8 |
| CC(C)C[C@H](NC(=O)OCc1cc(=O)c(O)co1)C(=O)OCc1cc(=O)c(O)co1 [(S)-2-(5-Hydroxy-4-oxo-4H-pyran-2-ylmethoxycarbonylamino)-4-methyl-pentanoic acid 5-hydroxy-4-oxo-4H-pyran-2-ylmethyl ester] | 2 |
| CC(C)C[C@H](NC(=O)OCc1cc(=O)c(O)co1)C(=O)O [(S)-2-(5-Hydroxy-4-oxo-4H-pyran-2-ylmethoxycarbonylamino)-4-methyl-pentanoic acid] | 14.5 |
| C[C@H](NC(=O)OCc1cc(=O)c(O)co1)C(=O)O [(S)-2-(5-Hydroxy-4-oxo-4H-pyran-2-ylmethoxycarbonylamino)-propionic acid] | 23.2 |
